Reference: patent US20240408010A1, “A Nano Emulsified Phyto-Drug For Transdermal Treatment of Diabetes” (University of South Africa, priority 2021, published 2024)

What was measured:
albino Wistar rats = test: Streptozotocin induction of hyperglycemic/diabetic state in albino Wistar rats; type: in vivo
Protocol: Table 1 presents the results of how the metabolism of normal albino rats progresses into a hyperglycemic/diabetic state as a multiple low-dosage of streptozotocin is administered for diabetes induction.

[1] = Solubility of diosgenin in oil phase; type: physicochemical; conditions: dissolved in combination with bottle gourd seed

Compound	Glucose Concentration (albino Wistar rats; First Cycle, Day 15)	Glycated Hemoglobin GHb (albino Wistar rats; First Cycle, Day 15)	Glycated Hemoglobin HbA1c (albino Wistar rats; First Cycle, Day 15)	Glycated Hemoglobin MBG (albino Wistar rats; First Cycle, Day 15)	Glucose Concentration (albino Wistar rats; First Cycle, Dose 1 of multiple low-dosage streptozotocin)	Glucose Concentration (albino Wistar rats; First Cycle, Dose 2)	Glucose Concentration (albino Wistar rats; First Cycle, Dose 3)	Glucose Concentration (albino Wistar rats; Second cycle, Dose 4)	Glucose Concentration (albino Wistar rats; Second cycle, Dose 5)	Glucose Concentration (albino Wistar rats; Second cycle, Dose 6)	Glycated Hemoglobin GHb (albino Wistar rats; Second cycle, Dose 6)	Glycated Hemoglobin HbA1c (albino Wistar rats; Second cycle, Dose 6)	Glycated Hemoglobin MBG (albino Wistar rats; Second cycle, Dose 6)	solubility of diosgenin [1]
CN(N=O)C(=O)N[C@H]1C(O)O[C@H](CO)[C@@H](O)[C@@H]1O (mixture of isomers) [Streptozotocin, streptozotocin]	532.17 ± 22.15 mg/dL	12.37 ± 0.81	9.50 ± 0.54%	225.39 ± 15.55	171.56 ± 22.70 mg/dL	318.31 ± 19.86 mg/dL	439.31 ± 41.00 mg/dL	425.60 ± 31.10 mg/dL	459.87 ± 33.56 mg/dL	451.89 ± 44.27 mg/dL	12.40 ± 0.28	9.50 ± 0.19%	226.03 ± 5.53	
C[C@@H]1CC[C@@]2(OC1)O[C@H]1C[C@H]3[C@@H]4CC=C5C[C@@H](O)CC[C@]5(C)[C@H]4CC[C@]3(C)[C@H]1[C@@H]2C [diosgenin]														enhanced
